According to PMC10482274, “Probing the substrate binding modes and catalytic mechanisms of BLEG-1, a promiscuous B3 metallo-β-lactamase with glyoxalase II properties” (PLOS ONE, 2023):

Target: T1, BLEG-1 (B3 metallo-β-lactamase) (Shouchella lehensis, UniProt A0A060M4R1)
T1 construct: gene BleG1_2478; wild-type recombinant BLEG-1 (26 kDa), purified by Ni-NTA
Assay: circular dichroism titration ([…] nm, non-linear regression); hydrolysis assay at […] nm with the purified enzyme
Type: binding

T1 sequence (A0A060M4R1 entry or part of it): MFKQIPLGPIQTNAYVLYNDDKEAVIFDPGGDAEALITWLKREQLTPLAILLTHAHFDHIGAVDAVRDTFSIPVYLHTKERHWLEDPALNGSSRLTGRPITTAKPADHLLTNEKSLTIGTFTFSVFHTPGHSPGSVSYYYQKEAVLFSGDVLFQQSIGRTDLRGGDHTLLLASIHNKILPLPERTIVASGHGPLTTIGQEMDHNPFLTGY

Which Kd does the source give for `CC1(C)S[C@@H]2[C@H](NC(=O)[C@H](N)c3ccccc3)C(=O)N2[C@H]1C(=O)O` [ampicillin] here?
Its Kd is 1510 nM.
